The results in this text go back to patent publication US9487559B2, “Compositions comprising multivalent synthetic ligands of surface nucleolin and glycosaminoglycans” (ELRO PHARMA SARL, priority 2010, dated 2016).

One assay deals with PANC1 cells. Description: PANC1 proliferation, gemcitabine alone or combined with N6L, Cs-C or nanoparticles, MTT assay. It counts as cell-based, human. The following applies: gemcitabine 1 nM to 50 nM, every day for 4 days, 5% FBS. How it is done:
FIG. 22. Nanoparticles, but not N6L, induce the activity of gemcitabine. Similar number of PANC1 cells was treated with increasing concentrations of gemcitabine alone or in combination with N6L, Cs-C, or nanoparticles composed by Cs-C.

Assay [1] deals with PANC-1 (Human pancreatic carcinoma) cells. Description: Anchorage-dependent proliferation of PANC-1 cells, MTT assay. The following applies: whatever the concentration used (0.1-1000 μg/ml). The assay is classed as cell-based. In general terms: Tetrazolium assays rely on reduction of a dye to a coloured formazan, in cell work by metabolically active cells.
The subject of assay [2] is U87-MG (Human glioblastoma-astrocytoma) cells. Put plainly: Anchorage-dependent proliferation of U87-MG cells, MTT assay. The assay is classed as cell-based. Conditions: whatever the concentration used (0.1-1000 μg/ml).
The subject of assay [3] is chicken embryo chorioallantoic membrane. Description: In vivo angiogenesis, chicken embryo chorioallantoic membrane (CAM) assay. Conditions: heparin or CS-C applied alone on the CAM, 48 h. How it is done: FIG. 21. […] An 1 cm2 area of chicken embryo CAM, restricted by a silicon ring, was incubated with 20 μM N6L or nanoparticles composed by 20 μM N6L and […] heparin or Cs-C. 48 h later, total vessels length was quantified. We observed that N6L had no effect on the in vivo angiogenesis, in contrast to the heparin or Cs-C composed nanoparticles that inhibited the development of new blood vessels (50% and 70%, respectively). Results are mean values±SD from at least 3 independent experiments.
To analyse the effects of N6L pre-incubated with sulfated glycoaminoglycans on in vivo angiogenesis using chicken embryo chorioallantoic membrane assay.
Leghorn fertilized eggs were incubated for 4 days at 37° C. A window was then opened on the eggshell, exposing the CAM. The window was covered with sterile tape, and the eggs were returned to the incubator. On day 9 of embryo development, […] of distilled water as a control or containing either 20 μM N6L, […] or 10 μg/ml CS-C alone or 20 μM N6L pre-incubated with either 10 μg/ml heparin or 10 μg/ml CS-C inside a silicone ring to restricted the area which is 1 cm^2. […] Photographs were taken and the total length of the vessels was quantified using PC image-analysis software (Scion Corporation, USA). […]

Entries after “also recorded” stand apart in the source; their conditions may differ.

Turning to `Nc1ccn([C@@H]2O[C@H](CO)[C@@H](O)C2(F)F)c(=O)n1` [gemcitabine], the “inhibition of PANC1 proliferation by gemcitabine alone” value in the assay with PANC1 cells is reported as “slight inhibition; also recorded: slightly inhibited”.
With heparin, in assay [1], the “effect of GAG alone on PANC-1 proliferation” value is given as “no effect”. The “effect of GAG alone on U87-MG proliferation” value in assay [2] is recorded as “no effect”. In addition, the “effect of GAG alone on in vivo angiogenesis” value in assay [3] is reported as “no effect”.
As to chondroitin-6-sulfate [Cs-C], in assay [1], the “effect of GAG alone on PANC-1 proliferation” value is “no effect”. Besides, in assay [2], the “effect of GAG alone on U87-MG proliferation” value is reported as “no effect”. Moreover, in assay [3], the “effect of GAG alone on in vivo angiogenesis” value is listed as “no effect”.
